Structures can show the parent of a compound that is named as a salt.
Assays:
[1] = Antimicrobial activity by analysis based on U.S. Pharmacopeia 28; conditions: dried vancomycin hydrochloride of Example 9
Protocol: (§1) Next, chilled absolute ethanol was added to the concentrate drop by drop until vancomycin hydrochloride was crystallized, the slurry was left in refrigerator for 12 hours to accelerate the crystallization, and then the slurry was filtered off. The filtered precipitate was dried in a vacuum dryer at 40° C. […] The analytical results are illustrated in FIG. 3 and FIG. 4.

[2] = Solubility of dried powder; type: physicochemical; conditions: dried vancomycin hydrochloride of Example 9
Protocol: as §1

SMILES: CN[C@H](CC(C)C)C(=O)N[C@H]1C(=O)N[C@@H](CC(N)=O)C(=O)N[C@H]2C(=O)N[C@H]3C(=O)N[C@H](C(=O)N[C@H](C(=O)O)c4cc(O)cc(O)c4-c4cc3ccc4O)[C@H](O)c3ccc(c(Cl)c3)Oc3cc2cc(c3O[C@@H]2O[C@H](CO)[C@@H](O)[C@H](O)[C@H]2O[C@H]2C[C@](C)(N)[C@H](O)[C@H](C)O2)Oc2ccc(cc2Cl)[C@H]1O [vancomycin hydrochloride]
- antimicrobial activity [1]: 1050 U
- solubility of powder [2]: freely soluble

Source: patent US20080193986A1, “Mutant strain of Amycolatopsis orientalis and process for preparing vancomycin hydrochloride” (priority 2007, published 2008)
